According to US20130296311A1, “INHIBITORS OF HCV NS5A” (PRESIDIO PHARMACEUTICALS, INC., priority 2010, published 2013):

Test system: HCV 1b_Huh-Luc/Neo-ET cell line persistently expressing a bicistronic genotype 1b replicon in Huh 7 cells
Assay: HCV replicon assay (luciferase readout, 72 h)
Assay type: cell-based, HCV genotype 1b
Conditions: Hepatitis C virus, Huh-7, 72 h, read-out: Inhibition of HCV genotype 1b
Procedure, shortened: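 Huh 7 cells carrying a bicistronic genotype 1b luciferase/neo replicon received compound in triplicate the day after plating. After 72 h, replicon levels were read as Bright-Glo luciferase activity, expressed as % of control; EC50 was fitted with a four-parameter logistic and determined several times.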

| SMILES | EC50 |
| --- | --- |
| COC(=O)N[C@H](C(=O)N[C@@H](C)c1ncc(-c2ccc(C#Cc3ccc(-c4cnc([C@@H]5CCCN5C(=O)[C@@H](C(C)C)N(C)C)[nH]4)cc3)cc2)[nH]1)C(C)C [Compound 964] | 1 to 9.9 nM |
| COC(=O)N[C@H](C(=O)N[C@@H](C)c1ncc(-c2ccc(C#Cc3ccc(-c4cnc([C@@H]5CCCN5C(=O)[C@@H](c5ccccc5)N(C)C)[nH]4)cc3)cc2)[nH]1)C(C)C [Compound 965] | < 1 nM |
| CC(C)[C@H](NC(=O)N1CCC(C)(O)CC1)C(=O)N1CCC[C@H]1c1ncc(-c2ccc(C#Cc3ccc(-c4cnc([C@@H]5CCCN5C(=O)[C@@H](NC(=O)N5CCC(C)(O)CC5)C(C)C)[nH]4)cc3)cc2)[nH]1 [Compound 966] | 10 to 999 nM |
| CC(C)[C@H](NC(=O)N1CCNCC1)C(=O)N1CCC[C@H]1c1ncc(-c2ccc(C#Cc3ccc(-c4cnc([C@@H]5CCCN5C(=O)[C@@H](NC(=O)N5CCNCC5)C(C)C)[nH]4)cc3)cc2)[nH]1 [Compound 967] | 10 to 999 nM |
| CC(C)[C@H](NC(=O)N1CC[C@@H](O)C1)C(=O)N1CCC[C@H]1c1ncc(-c2ccc(C#Cc3ccc(-c4cnc([C@@H]5CCCN5C(=O)[C@@H](NC(=O)N5CC[C@@H](O)C5)C(C)C)[nH]4)cc3)cc2)[nH]1 [Compound 968] | 10 to 999 nM |
| COC(=O)N[C@H](C(=O)N[C@@H](C)c1ncc(-c2ccc(C#Cc3ccc(-c4cnc([C@H](C)NC(=O)[C@@H](NC(=O)OC)[C@@H](C)O)[nH]4)cc3)cc2)[nH]1)[C@@H](C)O [Compound 969] | < 1 nM |
| COC(=O)N[C@H](C(=O)N1CCC[C@H]1c1ncc(-c2ccc(C#Cc3ccc(-c4cnc([C@@H]5CCCN5C(=O)[C@@H](c5ccccc5)N5CCC(C)(O)CC5)[nH]4)cc3)cc2)[nH]1)C(C)C [Compound 970] | < 1 nM |
| COC(=O)N[C@H](C(=O)N1CCC[C@H]1c1ncc(-c2ccc(C#Cc3ccc(-c4cnc([C@@H]5CCCN5C(=O)[C@@H](NC(=O)OC)[C@@H](C)O)[nH]4)cc3)cc2)[nH]1)C(C)C [Compound 971] | < 1 nM |
| COC(=O)N[C@H](C(=O)N1CCC[C@H]1c1ncc(-c2ccc(C#Cc3ccc(-c4cnc([C@@H]5CCCN5C(=O)[C@@H](NC(=O)OC)[C@@H](C)OC)[nH]4)cc3)cc2)[nH]1)C(C)C [Compound 972] | < 1 nM |
| COC(=O)N[C@H](C(=O)N1CCC[C@H]1c1ncc(-c2ccc(C#Cc3ccc(-c4cnc([C@@H]5CCCN5C(=O)[C@H](NC(=O)N(CCO)CCO)c5ccccc5)[nH]4)cc3)cc2)[nH]1)C(C)C [Compound 973] | < 1 nM |
| COC(=O)N[C@H](C(=O)N1CCC[C@H]1c1ncc(-c2ccc(C#Cc3ccc(-c4cnc([C@@H]5CCCN5C(=O)[C@H](NC(=O)N5CC[C@H](O)C5)c5ccccc5)[nH]4)cc3)cc2)[nH]1)C(C)C [Compound 974] | < 1 nM |
| COC(=O)N[C@H](C(=O)N1CCC[C@H]1c1ncc(-c2ccc(C#Cc3ccc(-c4cnc([C@@H]5CCCN5C(=O)[C@H](NC(=O)N5CC[C@@H](O)C5)c5ccccc5)[nH]4)cc3)cc2)[nH]1)C(C)C [Compound 975] | < 1 nM |
| COC[C@H](NC(=O)OC)C(=O)N1CCC[C@H]1c1ncc(-c2ccc(C#Cc3ccc(-c4cnc([C@@H]5CCCN5C(=O)[C@H](COC)NC(=O)OC)[nH]4)cc3)cc2)[nH]1 [Compound 976] | < 1 nM |
| COC(=O)N[C@@H](C(=O)N1CCC[C@H]1c1ncc(-c2ccc(C#Cc3ccc(-c4cnc([C@@H]5CCCN5C(=O)[C@H](NC(=O)OC)[C@H](C)OC)[nH]4)cc3)cc2)[nH]1)[C@H](C)OC [Compound 977] | 10 to 999 nM |
| COC(=O)NC(C(=O)N1CCC[C@H]1c1ncc(-c2ccc(C#Cc3ccc(-c4cnc([C@@H]5CCCN5C(=O)[C@H](NC(=O)OC)[C@H](C)O)[nH]4)cc3)cc2)[nH]1)[C@H](C)O (stereo partly drawn) [Compound 978] | 10 to 999 nM |
| C[C@H]1OC(=O)N[C@@H]1C(=O)N1CCC[C@H]1c1ncc(-c2ccc(C#Cc3ccc(-c4cnc([C@@H]5CCCN5C(=O)[C@H]5NC(=O)O[C@@H]5C)[nH]4)cc3)cc2)[nH]1 [Compound 979] | 10 to 999 nM |
| C[C@H]1OC(=O)N(C)[C@@H]1C(=O)N1CCC[C@H]1c1ncc(-c2ccc(C#Cc3ccc(-c4cnc([C@@H]5CCCN5C(=O)[C@@H]5[C@@H](C)OC(=O)N5C)[nH]4)cc3)cc2)[nH]1 [Compound 980] | 10 to 999 nM |
| COC(=O)N[C@H](C(=O)N1CCC[C@H]1c1ncc(-c2ccc(C#Cc3ccc(-c4cnc([C@H](C)NC(=O)[C@H](C(C)C)N(C)C)[nH]4)cc3)cc2)[nH]1)C(C)C [Compound 981] | 10 to 999 nM |
| COC(=O)N[C@H](C(=O)N1CCC[C@H]1c1ncc(-c2ccc(C#Cc3ccc(-c4cnc([C@H](C)NC(=O)[C@@H](C(C)C)N(C)C)[nH]4)cc3)cc2)[nH]1)C(C)C [Compound 982] | 10 to 999 nM |
| COC(=O)N[C@H](C(=O)N1CCC[C@H]1c1ncc(-c2ccc(C#Cc3ccc(-c4cnc([C@H](C)NC(=O)[C@@H](c5ccccc5)N(C)C)[nH]4)cc3)cc2)[nH]1)C(C)C [Compound 983] | < 1 nM |
| COC(=O)N[C@H](C(=O)N1CCC[C@H]1c1ncc(-c2ccc(C#Cc3ccc(-c4cnc([C@@H]5CCCN5C(=O)[C@@H](c5ccccc5)N5CCCC5)[nH]4)cc3)cc2)[nH]1)C(C)C [Compound 984] | < 1 nM |
| CCN(CC)[C@@H](C(=O)N1CCC[C@H]1c1ncc(-c2ccc(C#Cc3ccc(-c4cnc([C@@H]5CCCN5C(=O)[C@@H](NC(=O)OC)C(C)C)[nH]4)cc3)cc2)[nH]1)c1ccccc1 [Compound 985] | < 1 nM |
| COC(=O)N[C@H](C(=O)N1CCC[C@H]1c1ncc(-c2ccc(C#Cc3ccc(-c4cnc([C@@H]5CCCN5C(=O)[C@@H](c5ccccc5)N5CCCCC5)[nH]4)cc3)cc2)[nH]1)C(C)C [Compound 986] | < 1 nM |
| COC(=O)N[C@H](C(=O)N1CCC[C@H]1c1ncc(-c2ccc(C#Cc3ccc(-c4cnc([C@@H]5CCCN5C(=O)[C@@H](c5ccccc5)N5CCOCC5)[nH]4)cc3)cc2)[nH]1)C(C)C [Compound 987] | < 1 nM |
| CC(C)[C@H](NC(=O)N1CC[C@H](O)C1)C(=O)N1CCC[C@H]1c1ncc(-c2ccc(C#Cc3ccc(-c4cnc([C@@H]5CCCN5C(=O)[C@@H](NC(=O)N5CC[C@H](O)C5)C(C)C)[nH]4)cc3)cc2)[nH]1 [Compound 988] | 10 to 999 nM |
| COC(=O)N[C@H](C(=O)N1CCC[C@H]1c1ncc(-c2ccc(C#Cc3ccc(-c4cnc([C@@H]5CCCN5C(=O)[C@H](NC(=O)N5CCN(C)CC5)c5ccccc5)[nH]4)cc3)cc2)[nH]1)C(C)C [Compound 989] | < 1 nM |
| COC(=O)N[C@H](C(=O)N1CCC[C@H]1c1ncc(-c2ccc(C#Cc3ccc(-c4cnc([C@@H]5CCCN5C(=O)[C@@H](NC(=O)N5CCN(CCO)CC5)c5ccccc5)[nH]4)cc3)cc2)[nH]1)C(C)C [Compound 990] | 1 to 9.9 nM |
| COC(=O)N[C@H](C(=O)N1CCC[C@H]1c1ncc(-c2ccc(C#Cc3ccc(-c4cnc([C@@H]5CCCN5C(=O)[C@H](NC(=O)N5CCC(O)CC5)c5ccccc5)[nH]4)cc3)cc2)[nH]1)C(C)C [Compound 991] | 1 to 9.9 nM |
| COC(=O)N[C@H](C(=O)N1CCC[C@H]1c1ncc(-c2ccc(C#Cc3ccc(-c4cnc([C@@H]5CCCN5C(=O)[C@H](NC(=O)N5CCC(C)(O)CC5)c5ccccc5)[nH]4)cc3)cc2)[nH]1)C(C)C [Compound 992] | < 1 nM |
| COC(=O)N[C@H](C(=O)N1CCC[C@H]1c1ncc(-c2ccc(C#Cc3ccc(-c4cnc([C@@H]5CCCN5C(=O)[C@@H](NC(=O)OC)C(C)(C)O)[nH]4)cc3)cc2)[nH]1)C(C)(C)O [Compound 993] | < 1 nM |
